This note sets out measurements from ChEMBL document CHEMBL1201862, “PubChem BioAssay data set” (2004).

Some test systems named below: 786-0; A549; EKVX; HCC 2998; HL-60; Hs-578T; LOX IMVI; MCF7; NCI-H460; NCI/ADR-RES; OVCAR-3; RXF 393; SF-539; SK-MEL-2; SK-MEL-5; SN12C; SNB-75; SR; SW-620; UO-31.
Common to all, as to assay: NCI anticancer screen, dose series, 48 h

The structures appear in SMILES notation.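 Each compound was tested at five concentrations against cells in 96-well plates for 48 hours. GI50 is the concentration that inhibits growth by half.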 Active and inactive are the calls of the source. Cut-off read from the data, not from the text of the source: active = GI50 up to about 1.1 µM and inactive = higher.

On to `O=C1C=CC(=O)c2c(O)c(N(CCCl)CCCl)c(Cl)c(O)c21`, for which the GI50 in the test with 786-0 is 4.54 µM (inactive); with A549 it was > 9.71 µM (inactive); with EKVX, > 8.91 µM (inactive); in the test with HCC 2998, > 8.91 µM (inactive); with HL-60 it was > 6.05 µM (inactive); in the test on Hs-578T, 6.25 µM (inactive). Besides, the GI50 in the test on LOX IMVI was 4.49 µM (inactive); in the test on MCF7 it was 5.07 µM (inactive); with NCI-H460, 5.02 µM (inactive); in the test on NCI/ADR-RES it was 6.89 µM (inactive); with OVCAR-3, 4.74 µM (inactive); with RXF 393, > 5.2 µM (inactive). The GI50 in the test with SF-539 is 5.24 µM (inactive); in the test with SK-MEL-2, 4.78 µM (inactive); with SK-MEL-5 it was 4.59 µM (inactive); in the test on SN12C, > 6.68 µM (inactive); in the test with SNB-75, 7.8 µM (inactive); in the test with SR, 4.51 µM (inactive). The GI50 in the test with SW-620 is 3.75 µM (inactive); in the test on UO-31 it was > 5.75 µM (inactive).
With `CCOC(=O)/C=C\[C@H]1OC(C)(C)O[C@H]1[C@H](O)[C@H]1COC(C)(C)O1`, the GI50 was 19.4 µM (inactive) in the test with 786-0; > 100 µM (inactive) in the test with A549; 21.1 µM (inactive) with EKVX; 11.3 µM (inactive) in the test with HCC 2998; 22.8 µM (inactive) with HL-60; 26.8 µM (inactive) with Hs-578T. Also, the GI50 is 20 µM (inactive) with LOX IMVI; 20.8 µM (inactive) in the test with MCF7; 27 µM (inactive) in the test with NCI-H460; 32.5 µM (inactive) with NCI/ADR-RES; 17.4 µM (inactive) in the test on OVCAR-3; 20 µM (inactive) in the test with RXF 393. Moreover, the GI50 was 17.7 µM (inactive) in the test with SF-539; 22.3 µM (inactive) in the test with SK-MEL-2; 18.2 µM (inactive) in the test on SK-MEL-5; 17.4 µM (inactive) in the test with SN12C; 2.57 µM (inactive) in the test on SNB-75; 17.1 µM (inactive) in the test with SR. Besides, the GI50 in the test with SW-620 was 19.6 µM (inactive); with UO-31, 18.4 µM (inactive).
As to `CC(=O)NC(CCCCN(Cc1ccccc1)C(=O)N(CCCl)N=O)C(=O)NCc1ccccc1` (stereo not given), the GI50 with 786-0 is 0.895 µM (active); in the test on A549 it was 22.1 µM (inactive); in the test on EKVX it was 61.9 µM (inactive); with HCC 2998 it was > 100 µM (inactive); in the test with HL-60 it was 12.4 µM (inactive); in the test with Hs-578T it was 22.2 µM (inactive). In addition, the GI50 with LOX IMVI was 22.2 µM (inactive); in the test with MCF7 it was 16.3 µM (inactive); with NCI-H460, 2.22 µM (inactive); in the test with NCI/ADR-RES it was 14.5 µM (inactive); with OVCAR-3, 60.8 µM (inactive); in the test with RXF 393, 14.7 µM (inactive). Besides, the GI50 is 3.38 µM (inactive) with SF-539; 44.8 µM (inactive) in the test on SK-MEL-2; > 100 µM (inactive) with SK-MEL-5; 34.8 µM (inactive) with SN12C; 19.5 µM (inactive) in the test with SNB-75; 1.1 µM (active) in the test with SR. In addition, the values for the GI50 in the test on SW-620 and with UO-31 were 18.5 µM (inactive) and 34.4 µM (inactive), respectively.
For the molecule `COc1cccc2c1-c1ccccc1[C@H](Nc1ccccc1)[C@@]2(C)O`, the GI50 in the test on 786-0 was 5.45 µM (inactive); with A549, 7.5 µM (inactive); in the test on EKVX, 11 µM (inactive); in the test on HCC 2998 it was 7.26 µM (inactive); in the test on HL-60, 5.42 µM (inactive); in the test with Hs-578T, 4.97 µM (inactive). Besides, the GI50 is 10.1 µM (inactive) in the test with LOX IMVI; 4.34 µM (inactive) in the test with MCF7; 3.91 µM (inactive) in the test on NCI-H460; 3.64 µM (inactive) in the test with NCI/ADR-RES; 2.7 µM (inactive) in the test with OVCAR-3; 4.6 µM (inactive) in the test with RXF 393. The GI50 is 2.77 µM (inactive) with SF-539; 6.12 µM (inactive) in the test with SK-MEL-2; 3.62 µM (inactive) with SK-MEL-5; 4.55 µM (inactive) in the test with SN12C; 2.28 µM (inactive) in the test with SNB-75; 0.865 µM (active) with SR. Besides, the results for the GI50 with SW-620 and in the test with UO-31 were 4.35 µM (inactive) and 4.93 µM (inactive), respectively.
`NC(Cc1cccnn1)C(=O)O` (stereo not given): the GI50 in the test with 786-0, in the test on A549, with EKVX, in the test on HCC 2998, with HL-60 and with Hs-578T was > 100 µM (inactive) in each case. The GI50 in the test on LOX IMVI, with MCF7, in the test with NCI-H460, with NCI/ADR-RES, in the test on OVCAR-3 and in the test on RXF 393 was > 100 µM (inactive) throughout. Further, the GI50 with SF-539, in the test with SK-MEL-2, in the test on SK-MEL-5, with SN12C, with SNB-75 and in the test on SR was > 100 µM (inactive) each time. The GI50 with SW-620 and with UO-31 was > 100 µM (inactive) throughout.
Take `C=C(Cl)COC(=O)Nc1cccc(Cl)c1`: the GI50 in the test on 786-0 is 27.4 µM (inactive); with A549, 30.3 µM (inactive); in the test with EKVX, 22.5 µM (inactive); with HCC 2998, 37.1 µM (inactive); in the test with HL-60 it was 24.4 µM (inactive); in the test on Hs-578T it was 34 µM (inactive). Besides, the GI50 in the test on LOX IMVI is 35.6 µM (inactive); with MCF7, 28.1 µM (inactive); in the test with NCI-H460, 32.6 µM (inactive); in the test on NCI/ADR-RES, 29.3 µM (inactive); in the test on OVCAR-3, 28.1 µM (inactive); in the test with RXF 393 it was 25 µM (inactive). Also, the GI50 in the test with SF-539 was 54.8 µM (inactive); in the test with SK-MEL-2 it was 22.5 µM (inactive); in the test on SK-MEL-5, 18 µM (inactive); with SN12C, 33.8 µM (inactive); with SNB-75 it was 26.4 µM (inactive); in the test on SR, 51.1 µM (inactive). For the same molecule, the GI50 with SW-620 is 39.3 µM (inactive); in the test on UO-31 it was 12 µM (inactive).
Consider `CN(C1=NS(=O)(=O)N=C(N(C)c2ccccc2)O1)c1ccccc1`, for which the GI50 with 786-0 is 24.9 µM (inactive); in the test on A549, 21.2 µM (inactive); in the test with EKVX, 22.2 µM (inactive); in the test on HCC 2998 it was 20.7 µM (inactive); with HL-60 it was 13.6 µM (inactive); in the test with Hs-578T, 27.7 µM (inactive). Moreover, the GI50 in the test on LOX IMVI was 13.3 µM (inactive); in the test on MCF7, 15 µM (inactive); in the test with NCI-H460, 21.8 µM (inactive); with NCI/ADR-RES it was 21.8 µM (inactive); with OVCAR-3, 20.3 µM (inactive); in the test with RXF 393, 3.55 µM (inactive). Besides, the GI50 is 21.6 µM (inactive) in the test with SF-539; 16.4 µM (inactive) with SK-MEL-2; 7.66 µM (inactive) in the test on SK-MEL-5; 18.7 µM (inactive) in the test with SN12C; 16.7 µM (inactive) in the test with SNB-75; 7.06 µM (inactive) with SR. The GI50 was 14 µM (inactive) in the test with SW-620 and 21.4 µM (inactive) in the test on UO-31.
